In patent EP0565593B1, “REDUCING PESTICIDAL INTERACTIONS IN CROPS” (priority 1990, dated 1992):

Legend:
Velvetleaf (VELE) = test: Greenhouse test Procedure VII (same examples); type: in vivo, Abutilon theophrasti; conditions: Antidote + Biocide No. 1 in furrow
Text: This procedure describes interaction among herbicide, biocide and antidote when the biocide and the antidote is applied to a soil furrow containing crop seed before emergence of the crop and the herbicide is applied after emergence of the crop and weeds. The soil and planting depth was described in Procedure IV. The containers for comparison, the biocide and antidote applications to soil furrows were described in Procedure VI. In this procedure, the seed beds of the first, second, third and fourth containers are covered by soil layers not treated with herbicide. The containers were then placed on a bench in a greenhouse and subirrigated as required for the duration of the test. The herbicide, dispersed or dissolved in water containing 0.25% v/v nonionic surfactant (X-77) was applied by a track sprayer (187 L/ha) to the emerged plants of the second, third and fourth containers about five days after planting. All treatments were run in duplicate. Plant response was observed according to Procedure IV. Variations in this procedure will be noted in the examples.
In this example, tests were conducted according to Procedure VII for the POE application of the herbicides following in-furrow application of COUNTER® 15G insecticide (BIOCIDE No. 1) and the antidote on the pre-planted test seeds. In this test, the herbicides were Nos. 1 (MON-12000), 10 (ALLY®) and #4 (HARMONY®) and the Antidote Nos. 1, 7, 12 and 33.
These in-furrow treatments comprised a 50-50 mix of blended granules of COUNTER with and without 5G granular antidotes at 7.4 + 7.4 mg/cm or 1.1 + 0.37 mg active ingredient (a.i.)/cm. The in-furrow initiation of the test was followed five (5) days later with POE application of the herbicides; observations were made eight (8) days later. Table 38 […]

wheat (WHEA) = test: Multi-crop greenhouse test, soil-applied (Examples 65, 66; Tables 64, 65); type: in vivo
Protocol: (§1) Tests according to this invention in various crops indicate widespread application of the invention. In Examples 62-66 below are described tests with a variety of herbicides contacted with COUNTER® 15G in the presence and absence of MON-7400 (Antidote No. 12); MON-13900 (No. 1); MON-4660 (No. 16) and flurazole (No. 16). Those tests were conducted according to Procedures IV or V described above and illustrated further in other foregoing examples. Plants used in all tests were, for crops (as abbreviated in parentheses); cotton (COTT); soybean (SOBE); CORN, grain sorghum (GRSO); wheat (WHEA) and RICE, and the weeds giant foxtail (GIFT) and velvetleaf (VELE). The data in the tables below represent averages of two replications.
(§2) In this test the crops and weeds were planted 1.3 cm deep in 13.7 cm X 27.7 cm pans containing Dupo silt loam soil. The test safeners were applied in acetone solution and COUNTER 15G as dry granules to soil cover layers and incorporated by shaking in a bag. Treated cover layers were placed on seeded pans which were transferred to greenhouse benches and subirrigated. Herbicide was applied POE six (6) days after PPI initiation and observations of plant injury made ten (10) days later; results are shown in Table 61. The herbicide used in this example was BEACON (No. 8).
(§3) In another test in the several crops and weeds used in this test series, the herbicidal component was MON-12000 (No. 1); the other components were the same. the procedure used in this test was the same as that described in Example 62, modified to use a light overhead irrigation (about 0.32 cm/day) during days 4-7 of the test. Table 64 […]

RICE = test: as above; type: in vivo
Protocol: as §1, §2, §3

soybean (SOBE) = test: as above; type: in vivo
Protocol: as §1, §2, §3

Corn = test: as above; type: in vivo
Protocol: as §1, §2, §3

grain sorghum (GRSO) = test: as above; type: in vivo
Protocol: as §1, §2, §3

Giant foxtail (GIFT) = test: as above; type: in vivo
Protocol: as §1, §2, §3

[1] = Table 64, Herb. No. 1 0.018 Kg/Ha + Biocide No. 1 8.96 Kg/Ha + Antidote 4.48 Kg/Ha
[2] = Table 64, Herb. No. 1 0.07 Kg/Ha + Biocide No. 1 8.96 Kg/Ha + Antidote 4.48 Kg/Ha
[3] = Table 64, Herb. No. 1 0.28 Kg/Ha + Biocide No. 1 8.96 Kg/Ha + Antidote 4.48 Kg/Ha
[4] = Table 65, Herb. No. 1 0.018 Kg/Ha + Biocide No. 1 8.96 Kg/Ha + Antidote 4.48 Kg/Ha
[5] = Table 65, Herb. No. 1 0.07 Kg/Ha + Biocide No. 1 8.96 Kg/Ha + Antidote 4.48 Kg/Ha
[6] = Table 65, Herb. No. 1 0.28 Kg/Ha + Biocide No. 1 8.96 Kg/Ha + Antidote 4.48 Kg/Ha

COC(=O)COC(c1ccccc1)c1ccccc1 [compound 12]
5%: % Inhibition SOBE (soybean (SOBE); [1])
30%: % Inhibition GIFT (Giant foxtail (GIFT); [1])
20%: % Inhibition WHEA (wheat (WHEA); [6]) | % Inhibition RICE (RICE; [5]) | % Inhibition Corn (Corn; [6]) | % Inhibition GRSO (grain sorghum (GRSO); [5])
60%: % Inhibition VELE (Velvetleaf (VELE); Herbicide No. 19 0.28 Kg/Ha POE)
90%: % Inhibition VELE (Velvetleaf (VELE); Herbicide No. 1 0.14 Kg/Ha POE, 8 days after POE) | % Inhibition VELE (Velvetleaf (VELE); Herbicide No. 10 0.002 Kg/Ha POE, 8 days after POE)
65%: % Inhibition VELE (Velvetleaf (VELE); Herbicide No. 6 0.01 Kg/Ha POE) | % Inhibition VELE (Velvetleaf (VELE); Herbicide No. 23 0.0006 Kg/Ha POE)
80%: % Inhibition SOBE (soybean (SOBE); [3]) | % Inhibition GIFT (Giant foxtail (GIFT); [5])
75%: % Inhibition VELE (Velvetleaf (VELE); Herbicide No. 7 0.56 Kg/Ha POE, 8 days after POE) | % Inhibition VELE (Velvetleaf (VELE); Herbicide No. 15 0.0044 Kg/Ha POE, 8 days after POE) | % Inhibition GIFT (Giant foxtail (GIFT); [3])
85%: % Inhibition VELE (Velvetleaf (VELE); Herbicide No. 4 0.17 Kg/Ha POE, 8 days after POE) | % Inhibition VELE (Velvetleaf (VELE); Herbicide No. 5 0.07 Kg/Ha POE, 8 days after POE) | % Inhibition VELE (Velvetleaf (VELE); Herbicide No. 9 0.009 Kg/Ha POE) | % Inhibition VELE (Velvetleaf (VELE); Herbicide No. 21 0.14 Kg/Ha POE) | % Inhibition GIFT (Giant foxtail (GIFT); [6])
10%: % Inhibition RICE (RICE; [2]) | % Inhibition RICE (RICE; [3]) | % Inhibition Corn (Corn; [2]) | % Inhibition Corn (Corn; [3])
70%: % Inhibition VELE (Velvetleaf (VELE); Herbicide No. 18 0.0044 Kg/Ha POE) | % Inhibition RICE (RICE; [6]) | % Inhibition SOBE (soybean (SOBE); [2]) | % Inhibition GIFT (Giant foxtail (GIFT); [2])
0%: % Inhibition WHEA (wheat (WHEA); [1]) | % Inhibition WHEA (wheat (WHEA); [2]) | % Inhibition WHEA (wheat (WHEA); [3]) | % Inhibition WHEA (wheat (WHEA); [4]) | % Inhibition WHEA (wheat (WHEA); [5]) | % Inhibition RICE (RICE; [1]) | % Inhibition RICE (RICE; [4]) | % Inhibition SOBE (soybean (SOBE); [4]) | % Inhibition SOBE (soybean (SOBE); [5]) | % Inhibition Corn (Corn; [1]) | % Inhibition Corn (Corn; [4]) | % Inhibition Corn (Corn; [5]) | % Inhibition GRSO (grain sorghum (GRSO); [1]) | % Inhibition GRSO (grain sorghum (GRSO); [3]) | % Inhibition GRSO (grain sorghum (GRSO); [4])
55%: % Inhibition GRSO (grain sorghum (GRSO); [6])
15%: % Inhibition SOBE (soybean (SOBE); [6]) | % Inhibition GRSO (grain sorghum (GRSO); [2])
25%: % Inhibition VELE (Velvetleaf (VELE); Herbicide No. 16 0.01 Kg/Ha POE) | % Inhibition GIFT (Giant foxtail (GIFT); [4])
